{
  "source": "paper PMC5034429",
  "about": "“Enantioselective cascade biocatalysis for deracemization of 2-hydroxy acids using a three-enzyme system” (Microbial Cell Factories, 2016)",
  "molecular_target": "T1, (S)-2-HADH from P. aeruginosa NUST (Pseudomonas aeruginosa, UniProt R9RKA7)",
  "T1 construct": "synthetic gene in pET28b, E. coli BL21(DE3); resting cells; ~42 kDa on SDS-PAGE; FMN flavoprotein; strain also misprinted NSUT",
  "T1 sequence (R9RKA7 1-393)": "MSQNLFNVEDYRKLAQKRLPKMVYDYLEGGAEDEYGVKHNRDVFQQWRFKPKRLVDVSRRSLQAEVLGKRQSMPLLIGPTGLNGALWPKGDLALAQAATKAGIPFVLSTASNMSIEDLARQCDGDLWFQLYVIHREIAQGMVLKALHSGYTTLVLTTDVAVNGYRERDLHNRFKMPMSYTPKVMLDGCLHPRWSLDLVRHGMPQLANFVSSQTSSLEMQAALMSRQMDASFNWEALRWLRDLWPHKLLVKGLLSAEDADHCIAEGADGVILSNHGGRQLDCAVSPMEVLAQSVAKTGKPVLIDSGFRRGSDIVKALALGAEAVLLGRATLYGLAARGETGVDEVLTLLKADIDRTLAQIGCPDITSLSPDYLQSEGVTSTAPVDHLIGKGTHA",
  "test": "apoenzyme reactivation",
  "type": "biochemical",
  "conditions": "flavin removal, then addition of FMN",
  "data": [
    {"smiles": "Cc1cc2nc3c(=O)[nH]c(=O)nc-3n(C[C@H](O)[C@H](O)[C@H](O)COP(=O)(O)O)c2cc1C", "note": "[FMN]", "values": [
      {"measurement": "apoenzyme reactivation", "value": "The activity of the apoenzyme was partly reactivated by the addition of FMN"}
    ]}
  ]
}
